# “Also recorded” adds a separate entry of the source.
# Experiments:
# adults with FXS = conditions: single dose, cited from earlier work
# [1] = test system: cerebellar granule cells from fmr1 knockout mice; conditions: cited from earlier work
# [2] = test system: persons with FXS and comorbid ASD; conditions: 6 persons; cited from earlier work
# ERK/MAPK = assay: ICC of fixed lymphocytes for ERK/MAPK activity (anti-phospho-Thr202/Tyr204); assay type: cell-based, human; conditions: tamoxifen, 10 mM
# Protocol: Lymphocyte samples were prepared from patient's blood and plated onto a PDL-coated 24-well plate. Cells were fixed by adding 4% paraformaldehyde in PB solution (at RT). Excess paraformaldehyde solution was aspirate out. The fixed cells were washed three times gently with cold DPBS (Bulbecco-modified phosphate buffered saline). Then 0.12% Triton X-100 (diluted in DPBS) was added onto the cells at RT and incubated for 20 minutes at RT. Excess Triton X solution was aspirated out and cells were washed three times (gently) with chilled DPBS. Cells were blocked with 10% horse serum (HS) (diluted in DPBS) for 20 minutes at RT. Unbound blocking agent was washed off. The primary antibody diluted in 1% HS in DPBS was added. Generally a dilution of 1:250 was used. The antibody, which is raised in rabbit recognizes Phospho-Thr202/Tyr204 of ERK/MAPK, which indicates translocation of activated ERK/MAPK into the […] compartment.
# Incubation with the primary antibody was done for overnight at 4° C. Unbound primary antibody was washed off, and at this stage the plate can be stored at 4° C. Washed three times at RT with cold DPBS. Added Alexa Fluor conjugated goat anti rabbit (diluted 1:200 in DPBS) and incubated at RT for 1-2 hr. This reagent and this step is light sensitive to. For best results the reagent and this step of the procedure should be kept away from the light. […]
# fmr1 KO mice = conditions: mouse, in vivo; cited from earlier work
# mGluR5 = biological target: T1, mGluR5 (Mus musculus, UniProt Q3UVX5); conditions: in vivo; cited from earlier work
# T1 construct: host or cells: fmr1 knockout mouse, in vivo
# T1 sequence (Q3UVX5 19-1203): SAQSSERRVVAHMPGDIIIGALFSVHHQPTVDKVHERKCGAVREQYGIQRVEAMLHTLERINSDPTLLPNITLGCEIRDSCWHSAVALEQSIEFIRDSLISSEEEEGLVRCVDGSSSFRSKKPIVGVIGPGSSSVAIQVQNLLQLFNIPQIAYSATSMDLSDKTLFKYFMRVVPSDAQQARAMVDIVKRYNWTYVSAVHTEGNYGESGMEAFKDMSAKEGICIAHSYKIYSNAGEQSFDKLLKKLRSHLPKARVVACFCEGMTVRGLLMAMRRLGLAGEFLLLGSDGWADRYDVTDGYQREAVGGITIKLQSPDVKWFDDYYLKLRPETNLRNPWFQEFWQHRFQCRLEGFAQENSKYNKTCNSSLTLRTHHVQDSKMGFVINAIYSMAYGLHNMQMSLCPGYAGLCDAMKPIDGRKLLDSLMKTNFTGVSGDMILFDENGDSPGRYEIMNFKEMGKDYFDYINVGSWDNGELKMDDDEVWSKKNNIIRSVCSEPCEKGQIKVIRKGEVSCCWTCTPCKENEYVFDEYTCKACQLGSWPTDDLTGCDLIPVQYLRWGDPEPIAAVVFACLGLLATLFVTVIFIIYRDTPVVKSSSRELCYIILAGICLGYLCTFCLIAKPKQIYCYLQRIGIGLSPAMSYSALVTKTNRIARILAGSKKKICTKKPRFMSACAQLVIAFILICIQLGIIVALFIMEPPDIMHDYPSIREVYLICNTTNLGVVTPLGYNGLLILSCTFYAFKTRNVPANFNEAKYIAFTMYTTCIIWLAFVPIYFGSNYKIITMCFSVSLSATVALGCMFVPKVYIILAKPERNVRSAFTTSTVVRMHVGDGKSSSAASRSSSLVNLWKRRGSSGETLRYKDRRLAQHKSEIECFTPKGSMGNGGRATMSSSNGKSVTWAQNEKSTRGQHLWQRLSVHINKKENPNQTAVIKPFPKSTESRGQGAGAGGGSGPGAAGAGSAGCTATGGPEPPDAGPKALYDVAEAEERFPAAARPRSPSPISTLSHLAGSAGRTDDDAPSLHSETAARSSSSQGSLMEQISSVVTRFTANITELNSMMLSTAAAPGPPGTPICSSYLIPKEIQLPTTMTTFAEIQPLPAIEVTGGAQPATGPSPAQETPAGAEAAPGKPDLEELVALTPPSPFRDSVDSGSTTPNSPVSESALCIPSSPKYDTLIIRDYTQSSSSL
# [3] = test system: alcohol withdrawal associated anxiety; conditions: in vivo; cited from earlier work
# alcohol intake = conditions: mouse, in vivo; cited from earlier work
# ERK1/2 = conditions: adults with FXS; cited from earlier work
# males with FXS = conditions: cited from earlier work
# subjects with FXS = conditions: cited from earlier work
# fmr1 knockout mice = conditions: mouse, in vivo; cited from earlier work
smiles,measurement,setting,value
CN1CC(=O)NC1=NC(=O)Nc1cccc(Cl)c1 [fenobam],subjects experiencing mild sedation,adults with FXS; 12 adults with FXS,25%
same,subjects who experienced clinical benefit,"adults with FXS; 12 adults with FXS, reductions in hyperactivity and anxiety",75%
same,pharmacokinetics,adults with FXS,variable pharmacokinetics
same,tolerability,adults with FXS,good tolerability
CC12CC3CC(C)(C1)CC(N)(C3)C2 [memantine],dendritic spine development and synapse formation,[1],correction of dendritic spine development and synapse formation
same,subjects who developed treatment limiting irritability,[2],Two
same,subjects with clinical response (CGI-I very much improved or much improved),[2],67%
CC/C(=C(\c1ccccc1)c1ccc(OCCN(C)C)cc1)c1ccccc1 [Tamoxifen],ERK activation and translocation of ERK/MAPK (positive control),ERK/MAPK,induces ERK activation; also recorded: cytoplasmic localization of ERK 1/2
CC(=O)[C@H]1CC[C@H]2[C@@H]3CC[C@H]4C[C@H](O)CC[C@]4(C)[C@H]3C(=O)C[C@]12C [alphaxalone],effect on phenotype of fmr1 KO mice,fmr1 KO mice,reductions in anxiety and rescue of audiogenic seizures
NCCS(=O)(=O)O [taurine],effect on phenotype of fmr1 KO mice,fmr1 KO mice,Improvements in memory acquisition and retention
"Cc1cccc(C#Cc2ccccc2)n1 [MPEP, 2-methyl-6-(phenylethynyl)-pyridine]",effect on phenotypic characteristics of the fmr1 mouse model,mGluR5,"reverse phenotypic characteristics, including audiogenic seizures, altered pre-pulse inhibition (PPI), and open field hyperactivity"
"Cc1nc(C#Cc2cccnc2)cs1 [MTEP, 3-((2-Methyl-4-thiazolyl)ethynyl)pyridine]",alcohol withdrawal associated anxiety effects,[3],reduce alcohol withdrawal associated anxiety effects
same,alcohol intake,alcohol intake,reduced alcohol intake
Oc1noc2c1CCNC2 [gaboxadol],effect on phenotype of fmr1 KO mice,fmr1 KO mice,"restored neuron excitability deficits in the amygdala, reduced hyperactivity, and reduced PPI deficits"
Nc1nc2ccc(OC(F)(F)F)cc2s1 [riluzole],ERK1/2 activation rates,ERK1/2,modifies ERK1/2 activation rates
COC(=O)N1CC[C@@H]2[C@H]1CCC[C@@]2(O)C#Cc1cccc(C)c1 [AFQ056],group treatment effect,males with FXS; 30 males with FXS aged 18 to 35 years,not associated with significant group treatment effect
same,response in 7 subject subset with full fmr1 gene methylation,"males with FXS; ABC subscales and total, CGI-I, Visual Analogue Scale, Repetitive Behavior Scale-Revised",significant response to AFQ056 compared to placebo
"NC[C@H](CC(=O)O)c1ccc(Cl)cc1 (single isomer, unassigned) [STX209]","ABC Irritability (ABC-I) subscale, primary outcome measure",subjects with FXS; 63 subjects aged 6 to 40 years,not associated with improvement on the primary outcome measure
same,"ABC-SW and VABS Socialization, post-hoc 27 subject subset with baseline ABC-SW >8","subjects with FXS; human, in vivo",significant STX209-associated improvement
same,"Social Avoidance scale (ABC-SA), post-hoc analysis","subjects with FXS; human, in vivo",significant group-wide improvement
same,subjects reporting sedation,"subjects with FXS; human, in vivo",8%
same,tolerability,"subjects with FXS; human, in vivo",well tolerated
same,effect on protein synthesis and dendritic spines,fmr1 knockout mice,correction of aberrant protein synthesis and dendritic spine abnormalities
